{"source": "patent US10494378B2", "about": "“Fused ring pyrimidine compound, intermediate, and preparation method, composition and use thereof” (GUANGZHOU MAXINOVEL PHARMACEUTICALS CO., LTD., priority 2015, dated 2019)", "type_in_all_cases": "biochemical", "key": {"[1]": {"biological_target": "T1, JAK1 kinase (Homo sapiens, UniProt P23458)", "T1 construct": "purchased Carna 08-144", "T1 sequence (P23458 whole entry)": "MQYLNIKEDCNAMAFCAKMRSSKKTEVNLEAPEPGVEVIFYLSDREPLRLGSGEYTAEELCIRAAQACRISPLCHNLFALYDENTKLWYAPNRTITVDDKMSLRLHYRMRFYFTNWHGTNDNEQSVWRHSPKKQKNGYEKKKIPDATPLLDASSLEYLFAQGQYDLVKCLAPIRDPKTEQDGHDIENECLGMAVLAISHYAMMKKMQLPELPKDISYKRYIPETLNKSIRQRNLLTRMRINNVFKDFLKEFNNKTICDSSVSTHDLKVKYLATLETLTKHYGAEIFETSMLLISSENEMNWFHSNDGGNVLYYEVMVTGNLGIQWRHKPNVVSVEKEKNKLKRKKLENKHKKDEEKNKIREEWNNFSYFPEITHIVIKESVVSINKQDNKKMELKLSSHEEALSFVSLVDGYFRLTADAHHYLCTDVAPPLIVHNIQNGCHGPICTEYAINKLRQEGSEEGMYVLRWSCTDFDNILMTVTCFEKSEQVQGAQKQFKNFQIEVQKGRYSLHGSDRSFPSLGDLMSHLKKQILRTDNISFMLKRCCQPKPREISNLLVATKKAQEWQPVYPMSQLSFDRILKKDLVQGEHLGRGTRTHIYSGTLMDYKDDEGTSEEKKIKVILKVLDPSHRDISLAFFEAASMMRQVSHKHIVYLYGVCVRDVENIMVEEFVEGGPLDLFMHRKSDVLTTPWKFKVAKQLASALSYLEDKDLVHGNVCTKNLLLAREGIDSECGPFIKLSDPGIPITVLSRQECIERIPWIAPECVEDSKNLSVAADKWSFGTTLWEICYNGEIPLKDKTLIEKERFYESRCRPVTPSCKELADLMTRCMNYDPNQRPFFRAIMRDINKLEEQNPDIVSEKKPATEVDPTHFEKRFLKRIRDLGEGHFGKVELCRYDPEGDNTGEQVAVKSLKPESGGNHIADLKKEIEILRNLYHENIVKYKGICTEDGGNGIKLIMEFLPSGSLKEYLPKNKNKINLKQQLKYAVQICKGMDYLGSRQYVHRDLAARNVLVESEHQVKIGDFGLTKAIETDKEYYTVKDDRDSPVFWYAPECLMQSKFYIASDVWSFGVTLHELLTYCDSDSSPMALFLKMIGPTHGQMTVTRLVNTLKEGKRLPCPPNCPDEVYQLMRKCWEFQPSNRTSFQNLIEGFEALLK", "test": "IC50 evaluation assay on JAK1 kinase inhibition (Caliper)", "details": "adenosine triphosphate at Km; 1 hour at 28° C.; average of two tests; read-out: IC50 (nM) inhibiting JAK 1 kinase", "procedure": "(§1) 1. The compound was dissolved in 100% DMSO, diluted into solutions with appropriate concentration gradients with water according to experimental requirement, and added to a 384-well plate.\n(§2) 2. JAK2 kinase (Carna, Cat. No. 08-045, Lot. No. 07CBS-1927) and JAK3 kinase (Carna, Cat. No. 08-046, Lot. No. 08CBS-0371) were diluted to the optimum concentration with the following buffer solution: 50 mM HEPES, pH 7.5, 0.0015% Brij-35, 2 mM DTT. JAK1 kinase (Carna, Cat. No. 08-144, Lot. No. 11CBS-0144D) was diluted to the optimum concentration with the following buffer solution: 25 mM HEPES pH 7.5, 0.01% Brij-35, 2 mM DTT, 0.01M Triton. Transfer to the 384-well plate and incubated with the compound for a period of time.\n(§3) 3. […] The substrate of JAK1 was diluted to the optimum concentration with the following buffer: 25 mM HEPES, pH 7.5, 0.01% Brij-35, 10 mM MgCl2, 0.01M Triton, adenosine triphosphate at Km. Add to the 384-well plate to initiate there action and react for 1 hour at 28° C.\n(§4) 4. 1 Eq. of sulfuric acid solution was added to terminate the reaction, the conversion rate was read with Caliper Reader. The inhibition rate was calculated as the average of two tests."}, "[2]": {"biological_target": "T2, JAK2 kinase (Homo sapiens, UniProt O60674)", "T2 construct": "purchased Carna 08-045", "T2 sequence (O60674 whole entry)": "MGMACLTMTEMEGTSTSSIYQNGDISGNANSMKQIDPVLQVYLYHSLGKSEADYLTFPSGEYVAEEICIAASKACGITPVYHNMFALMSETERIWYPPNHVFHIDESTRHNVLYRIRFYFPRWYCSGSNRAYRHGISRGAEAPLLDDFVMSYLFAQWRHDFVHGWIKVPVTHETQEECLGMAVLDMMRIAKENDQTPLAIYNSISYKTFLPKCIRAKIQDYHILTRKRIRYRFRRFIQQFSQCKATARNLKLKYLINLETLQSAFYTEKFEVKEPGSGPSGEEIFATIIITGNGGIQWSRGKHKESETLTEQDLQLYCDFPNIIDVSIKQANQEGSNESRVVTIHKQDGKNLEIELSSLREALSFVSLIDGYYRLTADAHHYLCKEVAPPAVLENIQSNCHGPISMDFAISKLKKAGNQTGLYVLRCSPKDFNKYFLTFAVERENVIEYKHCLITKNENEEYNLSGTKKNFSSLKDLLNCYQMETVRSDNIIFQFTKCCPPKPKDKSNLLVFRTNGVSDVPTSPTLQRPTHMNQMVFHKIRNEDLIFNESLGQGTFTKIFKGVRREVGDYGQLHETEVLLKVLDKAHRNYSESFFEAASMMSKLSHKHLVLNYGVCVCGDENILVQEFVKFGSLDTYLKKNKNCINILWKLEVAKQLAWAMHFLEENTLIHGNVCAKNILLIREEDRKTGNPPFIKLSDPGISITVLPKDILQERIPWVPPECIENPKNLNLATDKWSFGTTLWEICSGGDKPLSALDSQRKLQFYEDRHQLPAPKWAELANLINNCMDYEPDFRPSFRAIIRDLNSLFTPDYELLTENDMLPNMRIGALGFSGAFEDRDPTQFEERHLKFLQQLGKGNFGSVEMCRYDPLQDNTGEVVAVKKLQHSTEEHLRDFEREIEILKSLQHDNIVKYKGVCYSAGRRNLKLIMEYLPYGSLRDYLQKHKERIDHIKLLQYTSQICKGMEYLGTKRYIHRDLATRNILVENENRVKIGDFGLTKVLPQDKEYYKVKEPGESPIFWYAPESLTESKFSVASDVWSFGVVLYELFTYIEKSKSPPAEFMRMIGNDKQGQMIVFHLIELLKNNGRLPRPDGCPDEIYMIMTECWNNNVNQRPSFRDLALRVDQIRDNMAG", "test": "IC50 evaluation assay on JAK2 kinase inhibition (Caliper)", "details": "adenosine triphosphate at Km; 1 hour at 28° C.; average of two tests; read-out: IC50 (nM) inhibiting JAK 2 kinase", "procedure": "as §1, §2, §3, §4"}, "[3]": {"biological_target": "T3, JAK3 kinase (Homo sapiens, UniProt P52333)", "T3 construct": "purchased Carna 08-046", "T3 sequence (P52333 1-1124)": "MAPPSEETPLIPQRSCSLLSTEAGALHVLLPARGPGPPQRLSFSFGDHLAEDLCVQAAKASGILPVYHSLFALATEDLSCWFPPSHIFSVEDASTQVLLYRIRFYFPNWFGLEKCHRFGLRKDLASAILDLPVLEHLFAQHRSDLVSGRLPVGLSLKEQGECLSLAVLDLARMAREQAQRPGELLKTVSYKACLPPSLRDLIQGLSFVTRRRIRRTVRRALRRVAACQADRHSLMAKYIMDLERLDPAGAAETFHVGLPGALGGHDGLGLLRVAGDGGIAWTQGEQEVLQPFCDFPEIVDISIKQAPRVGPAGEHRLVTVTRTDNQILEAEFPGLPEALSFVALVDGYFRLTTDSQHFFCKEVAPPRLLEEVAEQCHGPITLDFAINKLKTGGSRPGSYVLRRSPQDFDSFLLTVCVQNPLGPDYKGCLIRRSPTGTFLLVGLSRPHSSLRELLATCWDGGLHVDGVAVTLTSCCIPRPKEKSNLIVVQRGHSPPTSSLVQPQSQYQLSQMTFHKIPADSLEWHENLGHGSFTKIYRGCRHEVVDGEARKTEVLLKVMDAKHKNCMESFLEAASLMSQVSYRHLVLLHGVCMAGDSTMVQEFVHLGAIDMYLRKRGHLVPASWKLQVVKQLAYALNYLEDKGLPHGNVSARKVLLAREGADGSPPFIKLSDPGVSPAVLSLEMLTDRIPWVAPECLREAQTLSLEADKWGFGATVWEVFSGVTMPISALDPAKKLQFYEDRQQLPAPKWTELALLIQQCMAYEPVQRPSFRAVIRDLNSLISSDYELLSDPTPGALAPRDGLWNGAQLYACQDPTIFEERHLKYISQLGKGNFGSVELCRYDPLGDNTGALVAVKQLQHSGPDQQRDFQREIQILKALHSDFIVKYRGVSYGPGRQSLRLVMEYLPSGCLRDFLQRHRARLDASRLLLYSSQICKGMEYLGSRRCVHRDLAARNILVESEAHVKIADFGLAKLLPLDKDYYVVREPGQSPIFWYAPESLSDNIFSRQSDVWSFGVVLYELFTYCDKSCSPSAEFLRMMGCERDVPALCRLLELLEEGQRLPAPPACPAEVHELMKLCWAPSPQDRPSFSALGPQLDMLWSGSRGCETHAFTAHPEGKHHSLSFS", "test": "IC50 evaluation assay on JAK3 kinase inhibition (Caliper)", "details": "adenosine triphosphate at Km; 1 hour at 28° C.; average of two tests; read-out: IC50 (nM) inhibiting JAK 3 kinase", "procedure": "as §1, §2, §3, §4"}}, "data": [{"smiles": "Cc1sc2cnc(Nc3cnn(C4CCN(C(=O)CO)CC4)c3)nc2c1-c1cccc2c1OCC2", "note": "[Compound 36, 1-[4-(4-{[7-(2,3-dihydro-1-benzofuran-7-yl)-6-methylthieno[3,2-d]pyrimidinyl-2-yl]amino}-1H-pyrazol-1-yl)piperidinyl-1-yl]-2-hydroxyacetamide]", "values": [{"measurement": "IC50", "setting": "[1]", "result": 13, "unit": "nM"}, {"measurement": "IC50", "setting": "[2]", "result": 0.82, "unit": "nM"}, {"measurement": "IC50", "setting": "[3]", "result": 0.41, "unit": "nM"}]}, {"smiles": "COc1cc(Cl)ccc1-c1c(C)sc2cnc(Nc3cnn(C)c3)nc12", "note": "[Compound 6, N-[7-(4-chloro-2-dimethoxyphenyl)-6-methylthieno[3,2-d]pyrimidinyl-2-yl]-1-methyl-1H-pyrazol-4-amine]", "values": [{"measurement": "IC50", "setting": "[1]", "result": 12, "unit": "nM"}, {"measurement": "IC50", "setting": "[2]", "result": 1.4, "unit": "nM"}, {"measurement": "IC50", "setting": "[3]", "result": 1.4, "unit": "nM"}]}, {"smiles": "COc1cc(S(C)(=O)=O)ccc1-c1c(C)sc2cnc(Nc3cnn(C)c3)nc12", "note": "[Compound 4]", "values": [{"measurement": "IC50", "setting": "[1]", "result": 16, "unit": "nM"}, {"measurement": "IC50", "setting": "[2]", "result": 1.3, "unit": "nM"}, {"measurement": "IC50", "setting": "[3]", "result": 3.1, "unit": "nM"}]}, {"smiles": "COc1cc(OCCCS(C)(=O)=O)ccc1-c1c(C)sc2cnc(Nc3cnn(C)c3)nc12", "note": "[Compound 11, N-{7-[4-(3-methylsulfonylpropoxy)-2-methoxyphenyl]-6-methylthieno[3,2-d]pyrimidinyl-2-yl]-1-methyl-1H-pyrazol-4-amine]", "values": [{"measurement": "IC50", "setting": "[1]", "result": 5.1, "unit": "nM"}, {"measurement": "IC50", "setting": "[2]", "result": 0.94, "unit": "nM"}, {"measurement": "IC50", "setting": "[3]", "result": 0.73, "unit": "nM"}]}, {"smiles": "COc1ccccc1-c1cncc2cnc(Nc3cnn(C4CCNCC4)c3)nc12", "note": "[Compound 47, N-[8-(2-methoxyphenyl)pyridino[4,3-d]pyrimidin-2-yl]-1-(4-piperidin)-1H-pyrazol-4-amine]", "values": [{"measurement": "IC50", "setting": "[1]", "result": 58, "unit": "nM"}, {"measurement": "IC50", "setting": "[2]", "result": 9.6, "unit": "nM"}, {"measurement": "IC50", "setting": "[3]", "result": 3, "unit": "nM"}]}, {"smiles": "COc1ccccc1-c1cccc2cnc(Nc3cnn(C4CCNCC4)c3)nc12", "note": "[Compound 45, 8-(2-Methoxyphenyl)-N-[1-(4-piperidinyl)-1H-pyrazol-4-yl]quinazolin-2-amine]", "values": [{"measurement": "IC50", "setting": "[1]", "result": 2.4, "unit": "nM"}, {"measurement": "IC50", "setting": "[2]", "result": 5.8, "unit": "nM"}, {"measurement": "IC50", "setting": "[3]", "result": 1, "unit": "nM"}]}, {"smiles": "COc1ccncc1-c1c(C)sc2cnc(Nc3cnn(C)c3)nc12", "note": "[Compound 42]", "values": [{"measurement": "IC50", "setting": "[1]", "result": 47, "unit": "nM"}, {"measurement": "IC50", "setting": "[2]", "result": 13, "unit": "nM"}, {"measurement": "IC50", "setting": "[3]", "result": 29, "unit": "nM"}]}, {"smiles": "COc1cc(O[C@H]2CCOC2)ccc1-c1c(C)sc2cnc(Nc3cnn(C)c3)nc12", "note": "[Compound 15, N-(7-{2-methoxy-4-[(3S)-3-tetrahydrofuranoxy]phenyl}-6-methylthieno[3,2-d]pyrimidinyl-2-yl]-1-methyl-1H-pyrazol-4-amine]", "values": [{"measurement": "IC50", "setting": "[1]", "result": 13, "unit": "nM"}, {"measurement": "IC50", "setting": "[2]", "result": 1.8, "unit": "nM"}, {"measurement": "IC50", "setting": "[3]", "result": 2.1, "unit": "nM"}]}, {"smiles": "COc1ccccc1-c1c(C)sc2cnc(Nc3cnn(C4CCN(C)CC4)c3)nc12", "note": "[Compound 25, N-[7-(2-methoxyphenyl)-6-methylthieno[3,2-d]pyrimidinyl-2-yl]-1-(1-methylpiperidin-4-yl)-1H-pyrazol-4-amine]", "values": [{"measurement": "IC50", "setting": "[1]", "result": 3.6, "unit": "nM"}, {"measurement": "IC50", "setting": "[2]", "result": 0.6, "unit": "nM"}, {"measurement": "IC50", "setting": "[3]", "result": 1.3, "unit": "nM"}]}, {"smiles": "Cc1sc2cnc(Nc3cnn(C4CCNCC4)c3)nc2c1-c1cccc2c1OCC2", "note": "[Compound 32, N-[7-(2,3-dihyro-1-benzofuran-7-yl)-6-methylthieno[3,2-d]pyrimidinyl-2-yl]-1-(piperidinyl-4-yl)-1H-pyrazol-4-amine]", "values": [{"measurement": "IC50", "setting": "[1]", "result": 6.6, "unit": "nM"}, {"measurement": "IC50", "setting": "[2]", "result": 0.79, "unit": "nM"}, {"measurement": "IC50", "setting": "[3]", "result": 0.42, "unit": "nM"}]}, {"smiles": "COc1cc(OCC(=O)N2CCC2)ccc1-c1c(C)sc2cnc(Nc3cnn(C)c3)nc12", "note": "[Compound 23]", "values": [{"measurement": "IC50", "setting": "[1]", "result": 1.1, "unit": "nM"}, {"measurement": "IC50", "setting": "[2]", "result": 0.37, "unit": "nM"}, {"measurement": "IC50", "setting": "[3]", "result": 0.64, "unit": "nM"}]}, {"smiles": "c1cc2c(c(-c3cccc4cnc(Nc5cnn(C6CCNCC6)c5)nc34)c1)OCC2", "note": "[Compound 44, 8-(2,3-Dihydro-1-benzofuran-7-yl)-N-[1-(4-piperidin)-1H-pyrazol-4-yl]quinazolin-2-amine]", "values": [{"measurement": "IC50", "setting": "[1]", "result": 54, "unit": "nM"}, {"measurement": "IC50", "setting": "[2]", "result": 7.7, "unit": "nM"}, {"measurement": "IC50", "setting": "[3]", "result": 16, "unit": "nM"}]}]}
